From patent publication US8865634B2, “4-alkyl substituted pyridines as odiferous substances” (Symrise AG, priority 2008, dated 2014)

Key:
[1] = Olfactory description of the individual compounds; details: pure compound
Text: The olfactory descriptions of the individual compounds are as follows: […]

[2] = Diffusivity test (Petri dish 50 cm in front of the test subject, intensity rating); details: scale 1-9 (1=odorless to 9=very strong); 0.5 g in Petri dish, 50 cm from test subject, 20-25° C.
Text: 0.5 g of the odiferous substances to be tested are each weighed in a Petri dish and sealed with the lid. The Petri dish is placed 50 cm in front of the test subject (the distance is marked on the table before the test commences).
The lid is then removed from the Petri dish and a stopwatch is simultaneously started by the test subject. The test subject stops the time immediately they perceive the odor. The test subject assesses the intensity of the sample on a scale of 1=odorless to 9=very strong. The stop time and the intensity are noted on the test sheet.
Each sample is evaluated by the test subject three times. In order to be certain that the result is not distorted, all windows and doors must be shut. The room is at normal temperature (20-25° C.). […] As a rule a minimum of 8 participants evaluate the sample.

[3] = Threshold value in air (odor perception threshold, sample bag with gas stream); details: equilibrium approximately 18 hours at ambient temperature; as a rule 8 test subjects
Description: The odiferous substance to be tested is evaporated in a defined sampling system and then assessed sensorially with regard to the perception threshold. The sampling system comprises the sample bag and a gas stream outlet. A defined quantity of the desired odiferous substance is squirted into the bag. The equilibrium time after filling with the sample is approximately 18 hours at ambient temperature; then the content of the bag is presented to the test subject by means of a constant gas stream. At the first discernable olfactory impression a response button is pressed. The odor threshold concentration is achieved when in the next dilution stage the olfactory impression is confirmed by repeated pressing of the response button. The concentration of the sample is increased between the previous and the next samples by a factor of 2.
The assessment of the threshold value in air is measured against a standard and as a rule 8 test subjects take part in the sensorial evaluation. The participants have no anosmia in respect of the samples to be investigated.

[4] = Olfactory evaluation of perfume oils with and without 4-decyl pyridine dosed into products
Text: The composition with 4-n-decyl pyridine also has a fresher radiance overall.
Furthermore, the composition as a whole appears to be more harmonious and rounded.

## CCCCCCCCc1ccncc1 [4-n-octyl pyridine, 4-octyl pyridine]
[1]
  olfactory description: very intensive marine (watery) odor with an ozone note

## CC(C)=CCCC(C)=CCCc1ccncc1 [Maritima ®, 4-(4,8-dimethyl-3,7-nonadienyl)-pyridine, reference compound]
[2]
  Diffusivity: 3.4
[3]
  Threshold value in air: 0.155 ppm

## CCCCCCCCCCCCc1ccncc1 [4-n-dodecyl pyridine]
[1]
  olfactory description: Marine (watery) note, reminiscent of seaweed

## CCCCCCCCCc1ccncc1 [4-n-nonyl pyridine, 4-nonyl pyridine]
[1]
  olfactory description: distinctive odor of the sea

## CCCCCCCCCCCc1ccncc1 [4-n-undecyl pyridine, 4-undecyl pyridine]
[1]
  olfactory description: marine character, combining an aldehyde-like note with slight echoes of mandarin

## CCCCCCCCCCc1ccncc1 [4-decyl pyridine]
[2]
  Diffusivity: 8.1
[3]
  Threshold value in air: 0.014 ppm
[1]
  olfactory description: valuable marine character prized and sought after by perfumists
[4]; 0.001% in perfume oil F2, 12% perfume oil in ethanol (fine fragrance)
  olfactory effect in perfume oil: intensifies the transparent fresh head note
[4]; 0.005% in perfume oil A2, 0.3% perfume oil in all-purpose cleaner, versus A1
  olfactory effect in perfume oil: extreme intensification of the marine-mossy note
[4]; 0.01% in perfume oil P2, 0.3% perfume oil in washing powder, versus P1
  olfactory effect in perfume oil (booster effect): intensification of the lily of the valley and the fruity notes to a quite exceptional extent
[4]; 0.02% in perfume oil D2, 0.5% perfume oil in shower gel
  olfactory effect in perfume oil: boosts (intensifies) the watery-fresh head note of the perfume oil composition
[4]; 0.05% in perfume oil S2, 0.5% perfume oil in shampoo
  olfactory effect in perfume oil: intensifies (at a dosing of 0.5% of the perfume oil in the shampoo) the fruity peach/apricot character
[4]; 0.07% in perfume oil C2, 1.2% perfume oil in soap, versus C1
  olfactory effect in perfume oil: enormous intensification of the fresh characteristic
[4]; 1.0% in perfume oil W2, 0.6% perfume oil in fabric conditioner
  olfactory effect in perfume oil: greatly increases the sought-after violet character
